This is an account of results in US20170140097A1, “Methods For Identifying Agents With Desired Biological Activity” (The Procter & Gamble Company, priority 2012, published 2017).

Assay [1] has as its system dandruff average condition profile. Put plainly: Signature-free query for agents with gene expression profiles most different from a query condition (dandruff) (FIG. 17). Conditions: greater distance = more likely to reverse the condition. The source says:
Turning next to the method 110, FIG. 10 depicts a method 150 for performing a query for perturbagens eliciting a biological response that is dissimilar to that induced by a condition (e.g., chemicals likely to reverse a particular condition in a cell) (block 112). The method includes determining an average condition profile to use as a query (block 152), as described above. Specifically, the average condition profile (also referred to as an “adjusted condition gene expression profile”) may be calculated by finding the average expression value for each of the subset of probes used to learn the expression matrix. That is, if all of probes ID1-IDN (referring to FIG. 13) were used to learn the expression matrix, the average expression profile for a condition tested in instances 3A-10A and 3B-10B would include an average expression value for probe ID1: The average condition profile is projected onto the projection space (block 154). The distance from the average condition profile to each of the perturbagens in the projection space matrix is determined (block 156) and, at least in some embodiments, the perturbagens are ranked according to the distance of each in the projection space from the average condition profile (block 158). In some embodiments, the distance is calculated as a cosine distance. In some embodiments, the distance is calculated as a Euclidean distance. […]

Another assay concerns MCF7 cell line. Put plainly: Signature-free query for agents with biological activity similar to estradiol in cell line MCF7 (FIG. 15). In kind it is cell-based. Conditions: cell line MCF7 (expresses estrogen receptors); top five and bottom five chemicals. From the text:
Using the projection space matrix, it is possible to determine the similarity (or difference) between gene expression profiles in the projection space. The methods 100 and 110, for example, perform queries for similar biological activity (block 108) and biological dissimilarity (i.e., agents most likely to reverse a clinical endpoint) (block 112), respectively, by looking at the distances between instances depicted in the projection space matrix. Turning first to the method 100, FIG. 9 depicts a method 140 for performing a query for similar biological activity between instances mapping to two points in the projection space (e.g., for performing a query for similar activity between perturbagens) (block 108). […]
A query perturbagen (also referred to as a query agent) is then selected from the perturbagens in the projection space matrix (block 144). […] The distance from the query perturbagen in the projection space is calculated for each instance (or for a selected subset of instances) in the projection space matrix (block 146). In some embodiments, the distance is calculated as a cosine distance. In some embodiments, the distance is calculated as a Euclidean distance. […]
With reference to FIGS. 15 and 16, the effect of different perturbagens on different cell types at the transcriptional level is readily apparent. […]

Take `CC(C)(C)C(=O)C(Oc1ccc(Cl)cc1)n1ccnc1` (stereo not shown) [Climbazole]: the “ranking according to distance from the query condition” value in assay [1] is on record as “more distant from the query condition”.

On to `CCN(CC)CCOc1ccc(C(=C(Cl)c2ccccc2)c2ccccc2)cc1` [Clomifene], for which the “ranking according to distance from query perturbagen estradiol” value in the assay on MCF7 cell line is on record as “most dissimilar”.

For the molecule `C[C@]12CC[C@@H]3c4ccc(O)cc4C[C@@H](CCCCCCCCC[S+]([O-])CCCC(F)(F)C(F)(F)F)[C@H]3[C@@H]1CC[C@@H]2O` (stereo partly shown) [Fulvestrant], in the assay with MCF7 cell line, the “ranking according to distance from query perturbagen estradiol” value is given as “most dissimilar”.

Regarding `CC(=O)N1CCN(c2ccc(OCC3COC(Cn4ccnc4)(c4ccc(Cl)cc4Cl)O3)cc2)CC1` (stereo not shown) [Ketocanozole], in assay [1], the “ranking according to distance from the query condition” value was “more distant from the query condition”.
